Assay results taken from ChEMBL document CHEMBL5500324, “The potential of marine-derived piperazine alkaloids: Sources, structures and bioactivities” (Eur J Med Chem, 2024).
pIC50: −log10 of the molar value. Converted amounts (≈) assume the structure as drawn.

How the values were obtained:
[1] = Cytotoxicity against human A2780cis cells assessed as inhibition of cell growth incubated for 72 hrs by SRB assay; type: functional, cell-based
PANC-1 = experiment: Cytotoxicity against human PANC-1 cells assessed as reduction in cell viability; type: functional, cell-based
HL-60 [2] = experiment: Cytotoxicity against human HL-60 cells assessed as reduction in cell viability measured for 24 hrs by MTT assay; type: functional, cell-based; conditions: HL-60, 24 h
HCT-116 [3] = experiment: Cytotoxicity against human HCT-116 cells assessed as inhibition of cell growth incubated for 72 hrs by SRB assay; type: functional, cell-based; conditions: HCT-116, 72 h
[4] = Cytotoxicity against Sf9 cells assessed as inhibition of cell growth measured after 24 hrs by MTT assay; type: toxicity, cell-based; conditions: Spodoptera frugiperda
UMUC3 = experiment: Cytotoxicity against human UMUC3 cells assessed as reduction in cell viability by MTT assay; type: functional, cell-based
A549 [5] = experiment: Cytotoxicity against human A549 cells assessed as reduction in cell viability by MTT assay; type: functional, cell-based
HGC-27 = experiment: Cytotoxicity against human HGC-27 cells assessed as reduction in cell viability by MTT assay; type: functional, cell-based
HL-60 [6] = experiment: Cytotoxicity against human HL-60 cells assessed as reduction in cell growth measured for 72 hrs by MTT assay; type: functional, cell-based; conditions: HL-60, 72 h
L1210 = experiment: Cytotoxicity against mouse L1210 cells assessed as reduction in cell growth measured after 72 hrs by MTT assay; type: functional, cell-based; conditions: L1210, 72 h
P388 [7] = experiment: Cytotoxicity against mouse P388 cells assessed as inhibition of cell growth incubated for 72 hrs by MTT assay; type: functional, cell-based; conditions: P388, 72 h
HL-60 [8] = experiment: Anticancer activity against human HL-60 cells assessed as inhibition of cell growth measured after 24 hrs by CCK-8 assay; type: functional, cell-based; conditions: HL-60, 24 h
HeLa [9] = experiment: Antitumor activity against human HeLa cells assessed as inhibition of cell growth by MTT assay; type: functional, cell-based
Bel-7402 = experiment: Anticancer activity against human Bel-7402 cells assessed as reduction in cell growth measured for 24 hrs by MTT assay; type: functional, cell-based; conditions: Bel-7402, 24 h
P388 [10] = experiment: Antitumor activity against mouse P388 cells assessed as cell growth inhibition; type: functional, cell-based
[11] = Antitumor activity against human A375.S2 cells assessed as cell growth inhibition; type: functional, cell-based
A549 [12] = experiment: Anticancer activity against human A549 cells assessed as reduction in cell growth; type: functional, cell-based
HeLa [13] = experiment: Cytotoxicity against human HeLa cells assessed as reduction in cell viability by MTT assay; type: functional, cell-based
MDA-MB-231 = experiment: Cytotoxicity against human MDA-MB-231 cells assessed as reduction in cell growth incubated for 48 hrs by CCK-8 assay; type: functional, cell-based; conditions: MDA-MB-231, 48 h
HepG2 [14] = experiment: Cytotoxicity against human HepG2 cells assessed as reduction in cell growth incubated for 48 hrs by CCK-8 assay; type: functional, cell-based; conditions: HepG2, 48 h
[15] = Cytotoxicity against human Huh-7 cells assessed as reduction in cell growth; type: toxicity, cell-based
HepG2 [16] = experiment: Cytotoxicity against human HepG2 cells assessed as reduction in cell growth; type: functional, cell-based
K562 [17] = experiment: Cytotoxicity against human K562 cells assessed as reduction in cell viability by MTT assay; type: functional, cell-based
[18] = Cytotoxicity against human A2780cis cells assessed as cell growth inhibition by SRB assay; type: functional, cell-based
L5178Y = experiment: Cytotoxicity against mouse L5178Y cells assessed as reduction in cell growth by MTT assay; type: functional, cell-based
K562 [19] = experiment: Cytotoxicity against human K562 cells assessed as reduction in cell growth by MTT assay; type: functional, cell-based
BXPC-3 = experiment: Growth inhibition of human BXPC-3 cells assessed as reduction in cell viability measured after 3 days by CCK-8 assay; type: functional; conditions: BXPC-3, 72 h, time 3 day
MCF7 [20] = experiment: Growth inhibition of human MCF7 cells; type: functional
DU-145 = experiment: Growth inhibition of human DU-145 cells; type: functional
NCI-H460 [21] = experiment: Growth inhibition of human NCI-H460 cells; type: functional
KM-20L2 = experiment: Growth inhibition of human KM-20L2 cells; type: functional
FaDu = experiment: Growth inhibition of human FaDu cells; type: functional
SW-1736 = experiment: Growth inhibition of human SW-1736 cells; type: functional
SK-N-SH = experiment: Growth inhibition of human SK-N-SH cells; type: functional
SF-268 [22] = experiment: Growth inhibition of human SF-268 cells; type: functional
P388 [23] = experiment: Anticancer activity against mouse P388 cells assessed as inhibition of cell growth; type: functional; conditions: read-out: ED50 (the source's name)
MCF7 [24] = experiment: Cytotoxicity against human MCF7 cells; type: functional, cell-based
HepG2 [25] = experiment: Cytotoxicity against human HepG2 cells; type: functional, cell-based
HCT-116 [26] = experiment: Cytotoxicity against human HCT-116 cells; type: functional, cell-based
HeLa [27] = experiment: Cytotoxicity against human HeLa cells; type: functional, cell-based
HEp-2 = experiment: Cytotoxicity against human HEp-2 cells assessed as reduction in cell growth; type: functional, cell-based
U-937 [28] = experiment: Cytotoxicity against human U-937 cells assessed as reduction in cell viability incubated for 72 hrs by MTT assay; type: functional, cell-based; conditions: U-937, 72 h
HepG2 [29] = experiment: Cytotoxicity against human HepG2 cells assessed as reduction in cell growth incubated for 48 hrs by SRB assay; type: functional, cell-based; conditions: HepG2, 48 h
SF-268 [30] = experiment: Cytotoxicity against human SF-268 cells assessed as reduction in cell growth incubated for 72 hrs by SRB assay; type: functional, cell-based; conditions: SF-268, 72 h
NCI-H460 [31] = experiment: Cytotoxicity against human NCI-H460 cells assessed as reduction in cell growth incubated for 48 hrs by SRB assay; type: functional, cell-based; conditions: NCI-H460, 48 h
HepG2 [32] = experiment: Cytotoxicity against human HepG2 cells assessed as reduction in cell growth incubated for 72 hrs by SRB assay; type: functional, cell-based; conditions: HepG2, 72 h
PC-3 [33] = experiment: Cytotoxicity against human PC-3 cells assessed as reduction in cell viability; type: functional, cell-based
HCT-116 [34] = experiment: Cytotoxicity against human HCT-116 cells assessed as reduction in cell viability incubated for 24 hrs by MTT assay; type: functional, cell-based; conditions: HCT-116, 24 h
MCF7 [35] = experiment: Cytotoxicity against human MCF7 cells assessed as reduction in cell growth incubated for 72 hrs by SRB assay; type: functional, cell-based; conditions: MCF7, 72 h
RKO = experiment: Cytotoxicity against human RKO cells assessed as inhibition of cell growth measured after 48 hrs by MTT assay; type: functional, cell-based
[36] = Cytotoxicity against mouse FM3A tsFT210 cells assessed as inhibition of cell growth; type: functional, cell-based
MCF7 [37] = experiment: Cytotoxicity against human MCF7 cells assessed as reduction in cell growth incubated for 48 hrs by SRB assay; type: functional, cell-based; conditions: MCF7, 48 h
HCT-116 [38] = experiment: Cytotoxicity against human HCT-116 cells assessed as reduction in cell viability incubated for 72 hrs by MTT assay; type: functional, cell-based; conditions: HCT-116, 72 h
PC-3 [39] = experiment: Cytotoxicity against human PC-3 cells assessed as reduction in cell viability measured after 72 hrs by MTT assay; type: functional, cell-based; conditions: PC-3, 72 h
NCI-H460 [40] = experiment: Cytotoxicity against human NCI-H460 cells assessed as reduction in cell growth incubated for 72 hrs by SRB assay; type: functional, cell-based; conditions: NCI-H460, 72 h
HEK293 = experiment: Cytotoxicity against HEK293 cells assessed as cell growth inhibition; type: functional, cell-based; conditions: Homo sapiens
SF-268 [41] = experiment: Cytotoxicity against human SF-268 cells assessed as reduction in cell growth incubated for 48 hrs by SRB assay; type: functional, cell-based; conditions: SF-268, 48 h
U-937 [42] = experiment: Cytotoxicity against human U-937 cells assessed as reduction in cell viability; type: functional, cell-based

## O=C1N2[C@H]3C(=CC=C[C@@H]3O)C[C@]23SS[C@]12C[C@H]1[C@@H]([C@@H](O)C=C[C@@H]1O)N2C3=O
[1]
  pIC50: 6.18

## COc1ccc([C@H]2SS[C@@]34C[C@]5(O)[C@H](Cl)C=C[C@@H](O)[C@@H]5ON3C(=O)[C@@H]2NC4=O)c(O)c1OC
PANC-1
  pIC50: 7.70

## CC1(C)C=Cc2c(ccc3c2NC(=O)C(C)(C)/C=C\N2C(=O)C4=CCCN4C(=O)[C@@H]2CC3=O)O1
HL-60 [2]
  pIC50: 5.06

## O=C1N[C@@](O)(Cc2ccccc2)C(=O)N2CCC[C@@H]12
HCT-116 [3]
  pIC50: 4.64

## CS[C@@]1(Cc2ccccc2)NC(=O)[C@](O)(Cc2ccccc2)NC1=O
[4]
  IC50 at 24 h: 700 nM

## CC(C)C[C@H]1NC(=O)[C@H](CCC(N)=O)n2c1nc1ccccc1c2=O
UMUC3
  pIC50: 5.14
A549 [5]
  pIC50: 5.22
HGC-27
  pIC50: 5.21

## CSC12NC(=O)C(Cc3ccc(OCC=C(C)C)cc3)(NC1=O)[C@H]1C(=O)O[C@H](C)C/C=C/C(=O)O[C@H](C)C[C@@H](O)C(=O)[C@H]12 (stereo partly drawn)
HL-60 [6]
  pIC50: 5.66
L1210
  pIC50: 4.93
P388 [7]
  pIC50: 5.17

## CC(C)=CCC/C(C)=C/COc1ccc(C[C@@H]2NC(=O)[C@H](C)NC2=O)cc1
HL-60 [8]
  pIC50: 5.76
HeLa [9]
  pIC50: 5.47
Bel-7402
  pIC50: 5.49
P388 [10]
  pIC50: 5.54
[11]
  pIC50: 5.34
A549 [12]
  pIC50: 5.86

## CS[C@@H]1C(=O)N[C@](Cc2ccc(OCC=C(C)C)cc2)(SC)C(=O)N1C
HeLa [13]
  pIC50: 5.38

## COc1ccc2c(c1)NC(=O)[C@]21[C@H](C=C(C)C)N2C(=O)[C@@H]3CCCN3C(=O)[C@]2(O)[C@H]1O
MDA-MB-231
  pIC50: 4.45
HepG2 [14]
  pIC50: 4.85

## C[C@H]1CN2CC[C@]34C[C@@]5(C(=O)Nc6c5ccc5c6C(=O)CC(C)(C)O5)C(C)(C)[C@@H]3[C@@]2(C1)C(=O)N4C
[15]
  pIC50: 5.55
HepG2 [16]
  pIC50: 5.43

## CS[C@@H]1C(=O)N(C)/C(=C/c2ccc(OCC=C(C)C)cc2)C(=O)N1C
K562 [17]
  pIC50: 4.90

## C[C@]12NC(=O)[C@@H](Cc3c1[nH]c1ccccc31)n1c2nc2ccccc2c1=O
[18]
  pIC50: 4.41
L5178Y
  pIC50: 5.44
K562 [19]
  pIC50: 4.82

## CN1C(=O)N[C@H]2[C@@H]3NC(=O)c4ccc(Br)n4[C@@H]3C[C@]21O [AGELASTATIN A]
BXPC-3
  GI50: 0.089 µg/mL (≈ 0.261 µM)
MCF7 [20]
  GI50: 0.033 µg/mL (≈ 0.0967 µM)
DU-145
  GI50: 0.056 µg/mL (≈ 0.164 µM)
NCI-H460 [21]
  GI50: 0.036 µg/mL (≈ 0.106 µM)
KM-20L2
  GI50: 0.036 µg/mL (≈ 0.106 µM)
FaDu
  GI50: 0.24 µg/mL (≈ 0.703 µM)
SW-1736
  GI50: 0.12 µg/mL (≈ 0.352 µM)
SK-N-SH
  GI50: 0.042 µg/mL (≈ 0.123 µM)
SF-268 [22]
  GI50: 0.038 µg/mL (≈ 0.111 µM)
P388 [23]
  EC50: 0.052 µg/mL (≈ 0.152 µM)

## CC(C)/C=C1\NC(=O)[C@H](CCC(N)=O)n2c1nc1ccccc1c2=O [AURANTIOMIDE C]
MCF7 [24]
  IC50: 20.5 µg/mL (≈ 60.2 µM)
HepG2 [25]
  IC50: 23.9 µg/mL (≈ 70.3 µM)
HCT-116 [26]
  IC50: 9.51 µg/mL (≈ 27.9 µM)
HeLa [27]
  IC50: 18.5 µg/mL (≈ 54.3 µM)
HEp-2
  IC50: 37.6 µg/mL (≈ 111 µM)

## CN1C(=O)[C@]23CC4=CC=C[C@H](O)[C@H]4N2C(=O)[C@@]1(CO)SS3 [GLIOTOXIN]
U-937 [28]
  pIC50: 6.28
HepG2 [29]
  pIC50: 6.68
SF-268 [30]
  pIC50: 6.62
NCI-H460 [31]
  pIC50: 6.62
HepG2 [32]
  pIC50: 6.62
PC-3 [33]
  pIC50: 6.41
HCT-116 [34]
  pIC50: 5.91
MCF7 [35]
  pIC50: 7.10
RKO
  pIC50: 6.10
[36]
  IC50: 0.15 µg/mL (≈ 0.46 µM)
MCF7 [37]
  pIC50: 7.10
HCT-116 [38]
  pIC50: 6.39
PC-3 [39]
  pIC50: 4.80
NCI-H460 [40]
  pIC50: 6.68
HEK293
  pIC50: 5.80
SF-268 [41]
  pIC50: 6.62
U-937 [42]
  pIC50: 6.70
